Data as given in patent US9314541B2, “In vivo imaging method for cancer” (GE Healthcare Limited, priority 2010, dated 2016).

Key:
[1] = cited from earlier work
PBR = PBR (Homo sapiens, UniProt P30536); conditions: in vivo; cited from earlier work
[2] = compared with 11C-PK11195; cited from earlier work
[3] = In vivo biodistribution method; set-up: species or system Wistar rats; conditions: for OB:Str 30 min: ratio olfactory bulb to striatum, 30 min after injection
Experimental: Imaging agents of the invention were tested in an in vivo biodistribution model.
Adult male Wistar rats (200-300 g) were injected with 1-3 MBq of test compound via the lateral tail vein. At 2, 10, 30 or 60 min (n=3) after injection, rats were euthanised and tissues or fluids were sampled for radioactive measurement on a gamma counter.

Wistar rat heart PBR = biological target: T1, Wistar rat heart PBR (Rattus norvegicus, UniProt P16257); assay: In vitro potency assay: competition against 0.3 nM [3H]PK-11195 for binding to PBR; conditions: non-radioactive analogues tested; vs 0.3 nM [3H]PK-11195; 50 mM Tris-HCl pH 7.4, 10 mM MgCl2, 15 minutes at 25° C.
T1 construct: from tissue; host or cells: Wistar rat heart
Experimental: Non-radioactive analogues of in vivo imaging agents of the invention were tested.
The reaction was carried out in 50 mM Tris-HCl, pH 7.4 10 mM MgCl2 for 15 minutes at 25° C.

Chain of PBR (P30536 whole entry, species assumed): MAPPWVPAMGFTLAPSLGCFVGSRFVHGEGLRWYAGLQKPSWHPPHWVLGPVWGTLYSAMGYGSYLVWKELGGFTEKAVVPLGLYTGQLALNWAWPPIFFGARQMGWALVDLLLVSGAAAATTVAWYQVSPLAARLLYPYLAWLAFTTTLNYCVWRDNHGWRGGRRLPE

## CC[C@H](C)N([11CH3])C(=O)c1cc2ccccc2c(-c2ccccc2Cl)n1 [[^11C]PK11195]
[1]
  plasma protein binding: high and variable
PBR
  brain uptake: relatively low and variable
  levels of non-specific binding: relatively high

## CCN(CC)C(=O)Cc1c(-c2ccc(OCC[18F])cc2)nn2c(C)cc(C)nc12 [^18F-DPA-714]
[2]
  bioavailability: increased

## CN(Cc1ccccc1)C(=O)C1CCCc2c1c1ccccc1n2CC[18F] (stereo not shown) [compound 7]
[3]
  OB:Str 30 min: 3.40

## O=C(C1CCCc2c1c1ccccc1n2CC[18F])N1CCCCCC1 (stereo not shown) [compound 9]
[3]; brain, 2 min after injection via lateral tail vein, 1-3 MBq, adult male Wistar rats
  Brain 2 min (% ID/g): 0.56 % ID/g
[3]; olfactory bulb, 30 min after injection via lateral tail vein, adult male Wistar rats
  OB 30 min (% ID/g): 0.41 % ID/g
[3]
  OB:Str 30 min: 3.72

## CCN(CC)C(=O)C1CC(C)Cc2c1c1ccccc1n2CC[18F] (stereo not shown) [compound 11]
Wistar rat heart PBR
  Ki: 2.12 nM
[3]
  OB:Str 30 min: 3.50
